Source: US20130053430A1, “MODULATION OF CETP EXPRESSION” (Isis Pharmaceuticals, Inc., priority 2010, published 2013)
Strand notation (5' to 3'): a small letter for the sugar, then the base; units joined by * are phosphorothioate-linked, units joined directly phosphodiester-linked; [ ] holds rarer units or linkages, { } end groups; capitals alone tell only the bases. e = 2'-O-(2-methoxyethyl) (MOE); [5mC] = 5-methylcytosine; d = 2'-deoxy (DNA)

What was measured:
human CETP mRNA [1] = assay: Antisense inhibition of human CETP mRNA in SW872 liposarcoma cells (Example 1); type: cell-based; details: 150 nM antisense oligonucleotide, lipofectin, ~24 hours, relative to untreated control cells
Protocol: Antisense oligonucleotides targeted to a CETP nucleic acid were tested for their effect on CETP mRNA transcript in vitro. Cultured SW872 liposarcoma cells at a density of 50,000 cells per well in a 24-well plate were transfected using lipofectin reagent with 150 nM antisense oligonucleotide. After approximately 24 hours, RNA was isolated from the cells and CETP mRNA levels were measured by quantitative real-time PCR. A human primer probe set (forward sequence […], designated herein as SEQ ID NO: 38; reverse sequence GGCTCACGCCTTTGCTGTT, designated herein as SEQ ID NO: 39; probe sequence […], designated herein as SEQ ID NO: 40) was used to quantitate CETP mRNA. CETP mRNA transcript levels were adjusted according to total RNA content, as measured by the house-keeping gene, GAPDH mRNA levels. GAPDH was measured using a primer probe set with the sequence as set forth in SEQ ID NOs: 10, 11, 13. Results are presented as percent inhibition of CETP, relative to untreated control cells.
The antisense oligonucleotides in Table 3 are 5-10-5 gapmers, where the gap segment comprises ten 2′-deoxynucleosides and each wing segment comprises five 2′-MOE nucleosides. Each nucleotide in the 5′ wing segment and each nucleotide in the 3′ wing segment has a 2′-MOE modification. The internucleoside linkages throughout each gapmer are phosphorothioate (P═S) linkages. All cytosine residues throughout each gapmer are 5-methylcytosines. ‘Target start site’ indicates the 5′-most nucleotide to which the antisense oligonucleotide is targeted. ‘Target stop site’ indicates the 3′-most nucleotide to which the antisense oligonucleotide is targeted. All the antisense oligonucleotides listed in Table 3 target human CETP mRNA, designated herein as SEQ ID NO: 1 (GENBANK Accession No. M30185.1).

human CETP mRNA [2] = assay: Antisense inhibition of human CETP mRNA in primary hepatocytes from huCETP transgenic mice (Example 4); type: cell-based, mouse; details: cytofectin, ~24 hours
Protocol: Transgenic mice expressing human CETP, controlled by its natural flanking region, increase expression of this gene in response to hypercholesterolemia (Jiang, X. C. et al., J. Clin. Invest. 1992. 90: 1290-1295). These mice were utilized for the following studies. Antisense oligonucleotides targeted to a CETP nucleic acid and described in Example 1 were tested for their effect on CETP mRNA transcript in vitro. Cultured primary hepatocytes from huCETP transgenic mice, at a density of 17,500 cells per well in a 96-well plate, were transfected using cytofectin reagent with 100 nM or 200 nM antisense oligonucleotide. After approximately 24 hours, RNA was isolated from the cells and CETP mRNA levels were measured by quantitative real-time PCR. CETP mRNA transcript levels were adjusted according to total RNA content, as measured by the house-keeping gene, GAPDH mRNA levels. Results are presented in Table 6 as percent inhibition of CETP, relative to untreated control cells.

Substance	% inhibition (human CETP mRNA [1]) [%]	Percent inhibition of human CETP mRNA (human CETP mRNA [2]; 100 nM) [%]	Percent inhibition of human CETP mRNA (human CETP mRNA [2]; 200 nM) [%]
ISIS 349492: 5-10-5 MOE gapmer GGCATCTTGAGGCAGTGGAC (antisense eG*eG*e[5mC]*eA*eT*d[5mC]*dT*dT*dG*dA*dG*dG*d[5mC]*dA*dG*eT*eG*eG*eA*e[5mC])	39	59	58
ISIS 349466: 5-10-5 MOE gapmer CCACAGACACGTTCTGAATG (e[5mC]*e[5mC]*eA*e[5mC]*eA*dG*dA*d[5mC]*dA*d[5mC]*dG*dT*dT*d[5mC]*dT*eG*eA*eA*eT*eG)	15	57	81
ISIS 349476: 5-10-5 MOE gapmer CCTTCAGGACCAGCTTCAGG (e[5mC]*e[5mC]*eT*eT*e[5mC]*dA*dG*dG*dA*d[5mC]*d[5mC]*dA*dG*d[5mC]*dT*eT*e[5mC]*eA*eG*eG)	59	49	60
ISIS 349504: 5-10-5 MOE gapmer TGACCTCAGGGATGCCCACA (eT*eG*eA*e[5mC]*e[5mC]*dT*d[5mC]*dA*dG*dG*dG*dA*dT*dG*d[5mC]*e[5mC]*e[5mC]*eA*e[5mC]*eA)	45	78	92
ISIS 349455: 5-10-5 MOE gapmer CGATGCCTGCCTCGTGCGAG (e[5mC]*eG*eA*eT*eG*d[5mC]*d[5mC]*dT*dG*d[5mC]*d[5mC]*dT*d[5mC]*dG*dT*eG*e[5mC]*eG*eA*eG)	35	25	17
ISIS 349508: 5-10-5 MOE gapmer TCTCGAGTGATAATCTCAGG (eT*e[5mC]*eT*e[5mC]*eG*dA*dG*dT*dG*dA*dT*dA*dA*dT*d[5mC]*eT*e[5mC]*eA*eG*eG)	24	76	86
ISIS 349484: 5-10-5 MOE gapmer ACCAGAAGTACAGCATGCGG (eA*e[5mC]*e[5mC]*eA*eG*dA*dA*dG*dT*dA*d[5mC]*dA*dG*d[5mC]*dA*eT*eG*e[5mC]*eG*eG)	38	34	52
ISIS 349464: 5-10-5 MOE gapmer CTTCCACCAGCTCCACCTGG (e[5mC]*eT*eT*e[5mC]*e[5mC]*dA*d[5mC]*d[5mC]*dA*dG*d[5mC]*dT*d[5mC]*d[5mC]*dA*e[5mC]*e[5mC]*eT*eG*eG)	50	8	56
ISIS 349510: 5-10-5 MOE gapmer TCTAGCTCAAGCTCTGGAGG (eT*e[5mC]*eT*eA*eG*d[5mC]*dT*d[5mC]*dA*dA*dG*d[5mC]*dT*d[5mC]*dT*eG*eG*eA*eG*eG)	64	65	88
ISIS 349480: 5-10-5 MOE gapmer TGTCTCCATCTGAAAGGATG (eT*eG*eT*e[5mC]*eT*d[5mC]*d[5mC]*dA*dT*d[5mC]*dT*dG*dA*dA*dA*eG*eG*eA*eT*eG)	74	46	40
ISIS 349477: 5-10-5 MOE gapmer GATCTCTTTGCAGATCTGTC (eG*eA*eT*e[5mC]*eT*d[5mC]*dT*dT*dT*dG*d[5mC]*dA*dG*dA*dT*e[5mC]*eT*eG*eT*e[5mC])	41	44	47
